Assay results taken from patent US6737383B1, “Herbicidal oxadiazolidines” (priority 1999, dated 2004).

Tests used:
blackgrass = assay: Test B pre/postemergence blackgrass; type: in vivo, Alopecurus myosuroides
Procedure, shortened: (§1)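 Herbicidal effect was estimated by eye on a ten-point control scale after plants spent twelve to sixteen days in a greenhouse following soil or foliar treatment. Foliar sprays targeted plants at one to four leaves; all doses were formulated in a non-phytotoxic solvent with surfactant.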

rape = assay: Test B pre/postemergence rape; type: in vivo, Brassica napus
Procedure, shortened: as §1

wheat = assay: Test B pre/postemergence wheat; type: in vivo, Triticum aestivum
Procedure, shortened: as §1

surinam grass = assay: Test B pre/postemergence surinam grass; type: in vivo, Brachiaria decumbens
Procedure, shortened: as §1

corn = assay: Test B pre/postemergence corn; type: in vivo, Zea mays
Procedure, shortened: as §1

crabgrass = assay: Test B pre/postemergence crabgrass; type: in vivo, Digitaria sanguinalis
Procedure, shortened: as §1

wild oat = assay: Test B pre/postemergence wild oat; type: in vivo, Avena fatua
Procedure, shortened: as §1

sugar beet = assay: Test B pre/postemergence sugar beet; type: in vivo, Beta vulgaris
Procedure, shortened: as §1

pigweed = assay: Test B pre/postemergence pigweed; type: in vivo, Amaranthus retroflexus
Procedure, shortened: as §1

rice = assay: Test B flood test rice; type: in vivo, Oryza sativa
Procedure, shortened: (§2)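 Read-out is a visual response score from 0 (no effect) to 10 (complete control), assigned by comparison with untreated controls. Treatment was applied at the 2-leaf stage, and plants stayed in the greenhouse for twelve to sixteen days before scoring.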

bedstraw = assay: Test B pre/postemergence bedstraw; type: in vivo, Galium aparine
Procedure, shortened: as §1

morningglory = assay: Test B pre/postemergence morningglory; type: in vivo, Ipomoea hederacea
Procedure, shortened: as §1

giant foxtail = assay: Test B pre/postemergence giant foxtail; type: in vivo, Setaria faberii
Procedure, shortened: as §1

bamyardgrass = assay: Test B flood test barnyardgrass; type: in vivo, Echinochloa crus-galli
Procedure, shortened: as §2

purple nutsedge = assay: Test B pre/postemergence purple nutsedge; type: in vivo, Cyperus rotundus
Procedure, shortened: as §1

smallflower flatsedge = assay: Test B flood test smallflower flatsedge; type: in vivo, Cyperus difformis
Procedure, shortened: as §2

[1] = Preemergence, Rate 62 g/ha, scale of 0 to 10 where 0 is no effect and 10 is complete control
[2] = Preemergence, Rate 250 g/ha, scale of 0 to 10 where 0 is no effect and 10 is complete control
[3] = Preemergence, Rate 500 g/ha, scale of 0 to 10 where 0 is no effect and 10 is complete control
[4] = Rate 62 g/ha, Postemergence, scale of 0 to 10 where 0 is no effect and 10 is complete control
[5] = Rate 125 g/ha, Postemergence, scale 0 to 10
[6] = Rate 125 g/ha, Preemergence, scale of 0 to 10 where 0 is no effect and 10 is complete control
[7] = Rate 500 g/ha, Postemergence, scale 0 to 10, 0 no effect, 10 complete control
[8] = Rate 62 g/ha, headed Pre-emergence (flood test species), scale 0 to 10 (0 no effect, 10 complete control)
[9] = Rate 125 g/ha, Pre-emergence, flood test species, scale 0 to 10 where 0 is no effect and 10 is complete control
[10] = Rate 250 g/ha, Pre-emergence, flood-test species, scale 0 to 10, 0 is no effect, 10 is complete control
[11] = Rate 500 g/ha, Pre-emergence, flood test species, scale 0 to 10 (0 no effect, 10 complete control)

COc1cc(C)cc(C)c1-n1c(=O)on(C(=O)N(c2ccc(F)cc2F)C(C)C)c1=O [Compound 223]
Blackgrass plant response rating (blackgrass; [1]): 0 | Blackgrass plant response rating (blackgrass; [2]): 4 | Plant response rating, Blackgrass (blackgrass; [3]): 5 | Blackgrass plant response rating (blackgrass; [4]): 0 | Blackgrass plant response rating (blackgrass; [5]): 0 | Blackgrass plant response rating (blackgrass; [6]): 1 | Plant response rating (0 to 10; 0 is no effect, 10 is complete control), Blackgrass (blackgrass; Rate 250 g/ha, Postemergence): 3 | Blackgrass plant response rating (blackgrass; [7]): 1 | Rape plant response rating (rape; [1]): 0 | Rape plant response rating (rape; [2]): 0 | Plant response rating, Rape (rape; [3]): 0 | Rape plant response rating (rape; [4]): 0 | Rape plant response rating (rape; [5]): 0 | Rape plant response rating (rape; [6]): 0 | Plant response rating (0 to 10; 0 is no effect, 10 is complete control), Rape (rape; Rate 250 g/ha, Postemergence): 0 | Rape plant response rating (rape; [7]): 0 | Wheat plant response rating (wheat; [1]): 0 | Wheat plant response rating (wheat; [2]): 0 | Plant response rating, Wheat (wheat; [3]): 0 | Wheat plant response rating (wheat; [4]): 0 | Wheat plant response rating (wheat; [5]): 0 | Wheat plant response rating (wheat; [6]): 0 | Plant response rating (0 to 10; 0 is no effect, 10 is complete control), Wheat (wheat; Rate 250 g/ha, Postemergence): 0 | Wheat plant response rating (wheat; [7]): 0 | B. signalgrass plant response rating (surinam grass; [1]): 0 | B. signalgrass plant response rating (surinam grass; Preemergence, Rate 250 g/ha, scale 0 to 10, 0 is no effect, 10 is complete control): 3 | Plant response rating, B. signalgrass (surinam grass; [3]): 4 | B. signalgrass plant response rating (surinam grass; [4]): 0 | B. signalgrass plant response rating (surinam grass; Rate 125 g/ha, Postemergence, scale 0 (no effect) to 10 (complete control)): 0 | B. signalgrass plant response rating (surinam grass; [6]): 0 | Plant response rating (0 to 10; 0 is no effect, 10 is complete control), B. signalgrass (surinam grass; Rate 250 g/ha, Postemergence): 0 | B. signalgrass plant response rating (surinam grass; [7]): 0 | Corn plant response rating (corn; [1]): 0 | Corn plant response rating (corn; [2]): 0 | Plant response rating, Corn (corn; [3]): 0 | Corn plant response rating (corn; [4]): 0 | Corn plant response rating (corn; [5]): 0 | Corn plant response rating (corn; [6]): 0 | Plant response rating (0 to 10; 0 is no effect, 10 is complete control), Corn (corn; Rate 250 g/ha, Postemergence): 0 | Corn plant response rating (corn; [7]): 0 | Crabgrass plant response rating (crabgrass; [1]): 4 | Crabgrass plant response rating (crabgrass; [2]): 7 | Plant response rating, Crabgrass (crabgrass; [3]): 9 | Crabgrass plant response rating (crabgrass; [4]): 0 | Crabgrass plant response rating (crabgrass; [5]): 0 | Crabgrass plant response rating (crabgrass; [6]): 6 | Plant response rating (0 to 10; 0 is no effect, 10 is complete control), Crabgrass (crabgrass; Rate 250 g/ha, Postemergence): 1 | Crabgrass plant response rating (crabgrass; [7]): 3 | Wild oats plant response rating (wild oat; [2]): 2 | Plant response rating, Wild oats (wild oat; [3]): 4 | Wild oats plant response rating (wild oat; [4]): 0 | Wild oats plant response rating (wild oat; [5]): 0 | Wild oats plant response rating (wild oat; [6]): 0 | Plant response rating (0 to 10; 0 is no effect, 10 is complete control), Wild oats (wild oat; Rate 250 g/ha, Postemergence): 0 | Wild oats plant response rating (wild oat; [7]): 2 | Sugarbeets plant response rating (sugar beet; [1]): 0 | Sugarbeets plant response rating (sugar beet; [2]): 0 | Plant response rating, Sugarbeets (sugar beet; [3]): 0 | Sugarbeets plant response rating (sugar beet; [4]): 0 | Sugarbeets plant response rating (sugar beet; [5]): 1 | Sugarbeets plant response rating (sugar beet; [6]): 0 | Plant response rating (0 to 10; 0 is no effect, 10 is complete control), Sugarbeets (sugar beet; Rate 250 g/ha, Postemergence): 2 | Sugarbeets plant response rating (sugar beet; [7]): 3 | Redroot pigweed plant response rating (pigweed; [1]): 0 | Redroot pigweed plant response rating (pigweed; [2]): 7 | Plant response rating, Redroot pigweed (pigweed; [3]): 7 | Redroot pigweed plant response rating (pigweed; [4]): 0 | Redroot pigweed plant response rating (pigweed; [5]): 2 | Redroot pigweed plant response rating (pigweed; [6]): 0 | Plant response rating (0 to 10; 0 is no effect, 10 is complete control), Redroot pigweed (pigweed; Rate 250 g/ha, Postemergence): 3 | Redroot pigweed plant response rating (pigweed; [7]): 5 | Rice plant response rating (rice; [8]): 0 | Rice plant response rating (rice; [9]): 0 | Rice plant response rating (rice; [10]): 0 | Rice plant response rating (rice; [11]): 0 | Bedstraw plant response rating (bedstraw; [1]): 0 | Bedstraw plant response rating (bedstraw; [2]): 0 | Plant response rating, Bedstraw (bedstraw; [3]): 3 | Bedstraw plant response rating (bedstraw; [4]): 3 | Bedstraw plant response rating (bedstraw; [5]): 3 | Bedstraw plant response rating (bedstraw; [6]): 0 | Plant response rating (0 to 10; 0 is no effect, 10 is complete control), Bedstraw (bedstraw; Rate 250 g/ha, Postemergence): 4 | Bedstraw plant response rating (bedstraw; [7]): 5 | Morningglory plant response rating (morningglory; [1]): 0 | Morningglory plant response rating (morningglory; [2]): 1 | Plant response rating, Morningglory (morningglory; [3]): 1 | Morningglory plant response rating (morningglory; [4]): 1 | Morningglory plant response rating (morningglory; [5]): 3 | Morningglory plant response rating (morningglory; [6]): 1 | Plant response rating (0 to 10; 0 is no effect, 10 is complete control), Morningglory (morningglory; Rate 250 g/ha, Postemergence): 4 | Morningglory plant response rating (morningglory; [7]): 6 | Giant foxtail plant response rating (giant foxtail; [1]): 7 | Plant response rating, Giant foxtail (giant foxtail; [3]): 9 | Giant foxtail plant response rating (giant foxtail; [4]): 0 | Giant foxtail plant response rating (giant foxtail; [5]): 0 | Giant foxtail plant response rating (giant foxtail; [6]): 9 | Plant response rating (0 to 10; 0 is no effect, 10 is complete control), Giant foxtail (giant foxtail; Rate 250 g/ha, Postemergence): 0 | Giant foxtail plant response rating (giant foxtail; [7]): 1 | Barnyardgrass plant response rating (bamyardgrass; [8]): 0 | Barnyardgrass plant response rating (bamyardgrass; [9]): 0 | Barnyardgrass plant response rating (bamyardgrass; [10]): 0 | Barnyardgrass plant response rating (bamyardgrass; [11]): 0 | Nutsedge plant response rating (purple nutsedge; [1]): 0 | Nutsedge plant response rating (purple nutsedge; [4]): 0 | Nutsedge plant response rating (purple nutsedge; [5]): 0 | Nutsedge plant response rating (purple nutsedge; [6]): 0 | Plant response rating (0 to 10; 0 is no effect, 10 is complete control), Nutsedge (purple nutsedge; Rate 250 g/ha, Postemergence): 0 | Nutsedge plant response rating (purple nutsedge; [7]): 0 | S. Flatsedge plant response rating (smallflower flatsedge; [8]): 0 | S. Flatsedge plant response rating (smallflower flatsedge; [9]): 0 | S. Flatsedge plant response rating (smallflower flatsedge; [10]): 0 | S. Flatsedge plant response rating (smallflower flatsedge; [11]): 0
